Experiments:
ERK = assay: CEER phospho ERK level; assay type: cell-based, human; details: Lim1215 cells, 24 h, assay range 1.02-100
RSK = assay: CEER phospho RSK level; assay type: cell-based, human; details: Lim1215 cells, 24 h, assay range 2.56-100
Source text: (§1) These were complemented by ErbB heterodimerization assays using CEER.

MEK = assay: CEER phospho MEK level; assay type: cell-based, human; details: Lim1215 cells, 24 h, assay range 1.02-100
Source text: as §1

AKT = assay: CEER phospho AKT level; details: Lim1215 cells, 24 h, assay range 1.02-40
HER3 [1] = assay: CEER phospho HER3 activation level; assay type: cell-based, human; details: Lim1215 cells, 24 h, assay range 12.8-1500
Source text: as §1

HER2 [2] = target: T1, HER2 (Homo sapiens, UniProt P04626); assay: CEER phospho HER2 activation level; assay type: cell-based; details: Lim1215 cells, 24 h, assay range 20.48-2000
T1 construct: endogenous in cells; host or cells: Lim1215 human colon cancer cells
Source text: as §1

HER3:PI3K = assay: CEER HER3:PI3K complex assay; assay type: cell-based, human; details: Lim1215 cells; 24 h; series 4 (FIG. 4; DMSO 24.7); assay range 3.9-500
Source text: The assays described herein can be used to detect and quantitate the amount of PI3K complex and the amount of activation and/or phosphorylation of a PI3K complex. The PI3K complex comprises: (i) a dimerized receptor tyrosine kinase pair; and (ii) a PI3K p85 subunit and a PI3K p110 (e.g., α or β) subunit. In particular embodiments, the assay comprises three antibodies: (1) a capture antibody specific for either the PI3K p85 or the PI3K p110 subunit; (2) a first detection antibody specific for a first member of the dimerized receptor tyrosine kinase pair or a PI3K subunit, wherein the first detection antibody is specific for a different domain than the capture antibody and wherein the PI3K subunit may be activated; and (3) a second detection antibody specific for a second member of the dimer pair or a PI3K subunit.
as §1

HER2 [3] = assay: CEER total HER2 expression level; assay type: cell-based, human; details: Lim1215 cells, 24 h, assay range 390-25000
Source text: as §1

HER2:HER3 = assay: CEER ErbB heterodimerization assay, HER2:HER3 dimer; assay type: cell-based, human; details: Lim1215 cells, 24 h, assay range 50-1500
Source text: (§2) In certain aspects, the present invention provides an assay for detecting and/or quantitating homo- or heterodimerization of receptor tyrosine kinases including, but not limited to, HER1:HER2 dimers, HER1:HER3 dimers, HER2:HER3 dimers, HER2:HER2 dimers, HER2:HER4 dimers, p95HER2:HER3 dimers, p95HER2:HER2 dimers, and the like. A homodimer is formed by two identical molecules such as HER2:HER2 in a process called homodimerization, whereas a heterodimer is formed by two different macromolecules such as HER1:HER3 or HER2:HER3 in a process called heterodimerization. In this aspect, the assay comprises three antibodies: (1) a capture antibody specific for one member of the dimer pair; (2) a first detection antibody specific for a first member of the dimer pair, wherein the first detection antibody is specific for a different domain than the capture antibody; and a (3) a second detection antibody specific for a second member of the dimer pair.
(§3) A first detection antibody is then used to bind to a different portion (e.g., epitope) on HER2. […] The first detection antibody comprises one or a plurality of first activation state-independent antibodies specific for one member of the dimer, whereas a second detection antibody or a plurality of second detection antibodies is specific for the other member of the dimer. […] Thereafter, the plurality of detectable captured analytes are incubated with a second member of the signal amplification pair, e.g., tyramide or tyramide biotin to generate an amplified signal, which is then detected.
as §1

HER3 [4] = assay: CEER total HER3 expression level; assay type: cell-based, human; details: Lim1215 cells, 24 h, assay range 390-25000
Source text: as §1

HER1 [5] = target: T2, HER1 (Homo sapiens, UniProt P00533); assay: CEER phospho HER1 activation level; assay type: cell-based; details: Lim1215 cells; 24 h; series 4 (FIG. 4; DMSO 4.7); assay range 0.14-10.67
T2 construct: endogenous in cells; host or cells: Lim1215 human colon cancer cells
Source text: as §1

HER1 [6] = assay: CEER total HER1 expression level; assay type: cell-based, human; details: Lim1215 cells, 24 h, assay range 7.8-500
Source text: as §1

HER1:HER3 = assay: CEER ErbB heterodimerization assay, HER1:HER3 dimer; assay type: cell-based, human; details: Lim1215 cells, 24 h, assay range 200-20000
Source text: as §2, §3, §1

HER1:HER2 = assay: CEER ErbB heterodimerization assay, HER1:HER2 dimer; assay type: cell-based, human; details: Lim1215 cells, 24 h, assay range 7.8-1000
Source text: as §2, §3, §1

[7] = series 3 (FIG. 3; control […] >ULOQ)
[8] = series 3 (FIG. 3; control 16.3)
[9] = series 3 (FIG. 3; control 11.4)
[10] = series 3 (FIG. 3; control 3025)
[11] = series 3 (FIG. 3; control 211.8)
[12] = series 3 (FIG. 3; control 4282)

T1 sequence (P04626 23-1255): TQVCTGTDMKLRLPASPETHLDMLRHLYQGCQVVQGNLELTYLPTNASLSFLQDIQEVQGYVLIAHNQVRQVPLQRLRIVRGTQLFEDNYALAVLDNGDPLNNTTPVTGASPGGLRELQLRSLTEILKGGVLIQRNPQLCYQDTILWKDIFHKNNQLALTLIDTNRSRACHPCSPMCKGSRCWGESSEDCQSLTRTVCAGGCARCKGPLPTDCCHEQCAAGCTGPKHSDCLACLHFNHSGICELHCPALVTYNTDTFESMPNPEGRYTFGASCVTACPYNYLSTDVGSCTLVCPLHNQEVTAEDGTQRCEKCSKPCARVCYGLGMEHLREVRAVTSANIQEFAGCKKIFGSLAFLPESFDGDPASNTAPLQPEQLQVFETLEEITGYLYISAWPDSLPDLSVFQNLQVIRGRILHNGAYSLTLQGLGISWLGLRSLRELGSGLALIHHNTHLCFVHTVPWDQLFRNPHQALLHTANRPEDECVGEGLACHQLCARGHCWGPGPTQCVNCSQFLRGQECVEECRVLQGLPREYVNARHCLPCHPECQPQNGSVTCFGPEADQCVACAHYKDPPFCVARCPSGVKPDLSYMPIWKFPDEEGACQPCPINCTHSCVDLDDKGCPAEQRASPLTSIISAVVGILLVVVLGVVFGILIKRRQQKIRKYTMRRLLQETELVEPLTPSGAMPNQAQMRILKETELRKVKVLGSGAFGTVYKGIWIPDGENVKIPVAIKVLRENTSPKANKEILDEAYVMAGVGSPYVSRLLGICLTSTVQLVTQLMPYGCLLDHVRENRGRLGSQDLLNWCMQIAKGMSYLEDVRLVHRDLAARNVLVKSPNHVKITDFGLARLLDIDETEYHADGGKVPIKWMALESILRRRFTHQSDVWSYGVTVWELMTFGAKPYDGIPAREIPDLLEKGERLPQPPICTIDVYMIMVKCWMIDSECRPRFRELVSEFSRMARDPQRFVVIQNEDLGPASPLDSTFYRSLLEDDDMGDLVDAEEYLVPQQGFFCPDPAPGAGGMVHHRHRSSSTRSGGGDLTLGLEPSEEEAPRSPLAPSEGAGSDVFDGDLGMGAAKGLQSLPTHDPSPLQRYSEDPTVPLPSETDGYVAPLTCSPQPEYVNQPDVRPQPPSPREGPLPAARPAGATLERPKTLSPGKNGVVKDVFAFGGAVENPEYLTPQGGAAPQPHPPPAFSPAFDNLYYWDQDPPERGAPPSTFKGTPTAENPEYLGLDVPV
T2 sequence (P00533 25-1210): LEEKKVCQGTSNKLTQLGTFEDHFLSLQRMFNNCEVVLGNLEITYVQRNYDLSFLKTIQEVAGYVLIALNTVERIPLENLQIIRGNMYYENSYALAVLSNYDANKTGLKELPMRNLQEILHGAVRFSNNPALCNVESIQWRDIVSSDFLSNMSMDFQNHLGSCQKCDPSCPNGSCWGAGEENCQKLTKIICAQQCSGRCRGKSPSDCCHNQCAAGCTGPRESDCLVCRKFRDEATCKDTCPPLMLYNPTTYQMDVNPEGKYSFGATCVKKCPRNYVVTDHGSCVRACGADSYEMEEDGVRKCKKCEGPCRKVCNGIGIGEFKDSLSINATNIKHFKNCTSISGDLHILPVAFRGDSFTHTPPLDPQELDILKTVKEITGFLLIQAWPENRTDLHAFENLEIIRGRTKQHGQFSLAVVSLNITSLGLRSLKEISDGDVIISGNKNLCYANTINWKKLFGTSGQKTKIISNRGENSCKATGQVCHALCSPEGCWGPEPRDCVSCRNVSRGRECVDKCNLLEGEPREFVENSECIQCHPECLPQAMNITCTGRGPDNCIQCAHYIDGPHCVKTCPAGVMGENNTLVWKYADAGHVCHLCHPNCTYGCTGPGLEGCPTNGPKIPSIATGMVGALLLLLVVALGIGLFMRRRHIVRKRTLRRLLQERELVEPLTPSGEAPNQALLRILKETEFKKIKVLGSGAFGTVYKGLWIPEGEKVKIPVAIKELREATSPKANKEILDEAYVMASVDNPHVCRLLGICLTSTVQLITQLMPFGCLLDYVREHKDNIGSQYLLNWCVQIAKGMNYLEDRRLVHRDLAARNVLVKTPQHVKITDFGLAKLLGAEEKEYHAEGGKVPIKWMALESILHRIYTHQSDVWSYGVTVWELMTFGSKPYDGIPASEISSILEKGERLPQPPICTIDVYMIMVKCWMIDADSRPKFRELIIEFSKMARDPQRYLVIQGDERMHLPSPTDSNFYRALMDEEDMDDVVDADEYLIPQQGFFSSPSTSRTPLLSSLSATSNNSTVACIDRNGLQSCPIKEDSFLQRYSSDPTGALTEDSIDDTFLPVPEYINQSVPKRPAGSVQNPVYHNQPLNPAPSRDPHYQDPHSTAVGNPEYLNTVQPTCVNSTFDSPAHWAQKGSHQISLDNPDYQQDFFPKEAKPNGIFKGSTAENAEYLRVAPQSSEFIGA

`COc1cc2ncnc(Nc3ccc(F)c(Cl)c3)c2cc1OCCCN1CCOCC1` [Gefitinib, gefitinib] was tested, and the “Phos ERK (10 ug)” value (ERK; series 3 (FIG. 3; control 5.3)) was 1.1 pg/µg, the “Phos ERK (10 ug)” value (ERK; series 4 (FIG. 4; DMSO 3.3)) was 0.68 pg/µg and the “Phos RSK (10 ug)” value (RSK; [7]) was 6.3 pg/µg. The “Phos RSK (10 ug)” value (RSK; series 4 (FIG. 4; DMSO 91.4)) was 4.7 pg/µg, the “Phos MEK (10 ug)” value (MEK; [8]) was 2.9 pg/µg and the “Phos MEK (10 ug)” value (MEK; series 4 (FIG. 4; DMSO 9.8)) was 1.7 pg/µg. The “Phos AKT (10 ug)” value (AKT; [9]) was 0.64 pg/µg.

`CS(=O)(=O)CCNCc1ccc(-c2ccc3ncnc(Nc4ccc(OCc5cccc(F)c5)c(Cl)c4)c3c2)o1` [Lapatinib, lapatinib] was tested, and the “Phos ERK (10 ug)” value (ERK; series 3 (FIG. 3; control 5.3)) was 0.84 pg/µg, the “Phos ERK (10 ug)” value (ERK; series 4 (FIG. 4; DMSO 3.3)) was 0.56 pg/µg and the “Phos HER3 (10 ug)” value (HER3 [1]; series 3 (FIG. 3; control 573)) was 677. The “Phos HER2 (2.5 ug)” value (HER2 [2]; series 3 (FIG. 3; control 2068 >ULOQ)) was 49, the “Phos HER2 (2.5 ug)” value (HER2 [2]; series 4 (FIG. 4; DMSO 447)) was 15 and the “Phos RSK (10 ug)” value (RSK; [7]) was 3.9 pg/µg. The “Phos RSK (10 ug)” value (RSK; series 4 (FIG. 4; DMSO 91.4)) was 3.3 pg/µg, the “HER3:PI3K (4 ug)” value (HER3:PI3K) was 23.0 and the “Total HER2 (0.2 ug)” value (HER2 [3]; [10]) was 5391. The “Total HER2 (0.2 ug)” value (HER2 [3]; series 4 (FIG. 4; DMSO 2581)) was 4135, the “Phos MEK (10 ug)” value (MEK; [8]) was 3.1 pg/µg and the “Phos MEK (10 ug)” value (MEK; series 4 (FIG. 4; DMSO 9.8)) was 1.4 pg/µg. For the same compound, the “ErbB Dimer Formation HER2:HER3 (2 ug)” value (HER2:HER3; [11]) was 493.6, the “ErbB Dimer Formation HER2:HER3 (2 ug)” value (HER2:HER3; series 4 (FIG. 4; DMSO 172.5)) was 301.3 and the “Phos AKT (10 ug)” value (AKT; [9]) was 0.66 pg/µg. For the same compound, the “Total HER3 (0.2 ug)” value (HER3 [4]; [12]) was 5711 and the “Total HER3 (0.2 ug)” value (HER3 [4]; series 4 (FIG. 4; DMSO 3388)) was 6907.

In the case of `O=C(NC[C@H](O)CO)c1ccncc1Nc1ccc(I)cc1F` [iMEK AS703026, AS703026], the “Phos ERK (10 ug)” value (ERK; series 4 (FIG. 4; DMSO 3.3)) is reported as 1.1 pg/µg, the “Phos HER3 (10 ug)” value (HER3 [1]; series 4 (FIG. 4; DMSO 204)) is reported as 300 and the “Phos HER2 (2.5 ug)” value (HER2 [2]; series 4 (FIG. 4; DMSO 447)) is reported as 480. For the same compound, the “Phos HER1 (10 ug)” value (HER1 [5]) was 2.9, the “Phos RSK (10 ug)” value (RSK; series 4 (FIG. 4; DMSO 91.4)) was 35.9 pg/µg and the “HER3:PI3K (4 ug)” value (HER3:PI3K) was 27.8. For the same compound, the “Total HER2 (0.2 ug)” value (HER2 [3]; series 4 (FIG. 4; DMSO 2581)) was 2546, the “Phos MEK (10 ug)” value (MEK; series 4 (FIG. 4; DMSO 9.8)) was 74.9 pg/µg and the “ErbB Dimer Formation HER2:HER3 (2 ug)” value (HER2:HER3; series 4 (FIG. 4; DMSO 172.5)) was 313.2. The “Total HER3 (0.2 ug)” value (HER3 [4]; series 4 (FIG. 4; DMSO 3388)) was 3317, the “Total HER1 (1 ug)” value (HER1 [6]; series 4 (FIG. 4; DMSO 96.8)) was 69.9 and the “ErbB Dimer Formation HER1:HER3 (0.5 ug)” value (HER1:HER3; series 4 (FIG. 4; DMSO 186)) was 226. The “ErbB Dimer Formation HER1:HER2 (2 ug)” value (HER1:HER2; series 4 (FIG. 4; DMSO 42.7)) was 52.1.

In the case of pertuzumab, the “Phos ERK (10 ug)” value (ERK; series 2 (FIG. 2; Control 5.7)) is reported as 5.6 pg/µg, the “Phos ERK (10 ug)” value (ERK; series 3 (FIG. 3; control 5.3)) is reported as 2.2 pg/µg and the “Phos HER3 (10 ug)” value (HER3 [1]; series 2 (FIG. 2; Control 236)) is reported as 313. The “Phos HER3 (10 ug)” value (HER3 [1]; series 3 (FIG. 3; control 573)) was 826, the “Phos RSK (10 ug)” value (RSK; series 2 (FIG. 2; Control 289 >ULOQ)) was 199 pg/µg and the “Phos RSK (10 ug)” value (RSK; [7]) was 92.1 pg/µg. For the same compound, the “Total HER2 (0.2 ug)” value (HER2 [3]; series 2 (FIG. 2; Control 4212)) was 7200, the “Total HER2 (0.2 ug)” value (HER2 [3]; [10]) was 5568 and the “Phos MEK (10 ug)” value (MEK; series 2 (FIG. 2; Control 38.0)) was 17.1 pg/µg. For the same compound, the “Phos MEK (10 ug)” value (MEK; [8]) was 8.6 pg/µg, the “ErbB Dimer Formation HER2:HER3 (2 ug)” value (HER2:HER3; series 2 (FIG. 2; Control 250.9)) was 704.6 and the “ErbB Dimer Formation HER2:HER3 (2 ug)” value (HER2:HER3; [11]) was 472.1. For the same compound, the “Phos AKT (10 ug)” value (AKT; series 2 (FIG. 2; Control 9.6)) was 6.1 pg/µg, the “Phos AKT (10 ug)” value (AKT; [9]) was 1.2 pg/µg and the “Total HER3 (0.2 ug)” value (HER3 [4]; series 2 (FIG. 2; Control 7757)) was 10665. For the same compound, the “Total HER3 (0.2 ug)” value (HER3 [4]; [12]) was 5501, the “Total HER1 (1 ug)” value (HER1 [6]; series 2 (FIG. 2; Control 171.4)) was 198.5 and the “Total HER1 (1 ug)” value (HER1 [6]; series 3 (FIG. 3; control 137.2)) was 115.1. For the same compound, the “ErbB Dimer Formation HER1:HER3 (0.5 ug)” value (HER1:HER3; series 2 (FIG. 2; Control 387)) was 458, the “ErbB Dimer Formation HER1:HER3 (0.5 ug)” value (HER1:HER3; series 3 (FIG. 3; control 398)) was 412 and the “ErbB Dimer Formation HER1:HER2 (2 ug)” value (HER1:HER2; series 2 (FIG. 2; Control […])) was 161.7. The “ErbB Dimer Formation HER1:HER2 (2 ug)” value (HER1:HER2; series 3 (FIG. 3; control 46.0)) was 64.8.
